Measurements reported in patent publication US20110081315A1, “NOVEL MACROCYCLIC INHIBITORS OF HEPATITIS C VIRUS REPLICATION” (INTERMUNE, INC., priority 2009, published 2011).
Like-named read-outs stand apart in the source and are kept apart here.

Tests used:
hepatitis C replicon = hepatitis C replicon EC50 assay; type: cell-based; settings: Hepatitis C virus
Source text: (§1) NS3-NS4 inhibition activity can be determined using known assay methods. For example, NS3/NS4 complexes may be formed and inhibitory concentrations of test compounds determined as described in U.S. Patent Application Publication Number 2007/0054842 paragraph numbers 1497-1509, which is incorporated herein by reference in its entirety. Similarly, hepatitis C replicon EC50 may be determined using known assay methods such as described in U.S. Patent Application Publication Number 2007/0054842 paragraph numbers 1510-1515, which is incorporated herein by reference in its entirety. Assays may be conducted at ambient temperature (23° C.) in assay buffer containing 50 mM Tris-HCl, pH 7.5, 15% glycerol, 0.6 mM Lauryldimethylamine Oxide (LDAO), 25 μM NS4A peptide, and 10 mM Dithiothreitol (DTT).

NS3/NS4 complexes = NS3/NS4 complexes (Hepatitis C virus genotype 1a, UniProt P27958); experiment: NS3/NS4 inhibition assay (IC50); type: biochemical; settings: NS3/NS4 activity; 23° C., 25 μM NS4A peptide
Sequence of NS3/NS4 complexes (P27958 1027-1657, one chain of several): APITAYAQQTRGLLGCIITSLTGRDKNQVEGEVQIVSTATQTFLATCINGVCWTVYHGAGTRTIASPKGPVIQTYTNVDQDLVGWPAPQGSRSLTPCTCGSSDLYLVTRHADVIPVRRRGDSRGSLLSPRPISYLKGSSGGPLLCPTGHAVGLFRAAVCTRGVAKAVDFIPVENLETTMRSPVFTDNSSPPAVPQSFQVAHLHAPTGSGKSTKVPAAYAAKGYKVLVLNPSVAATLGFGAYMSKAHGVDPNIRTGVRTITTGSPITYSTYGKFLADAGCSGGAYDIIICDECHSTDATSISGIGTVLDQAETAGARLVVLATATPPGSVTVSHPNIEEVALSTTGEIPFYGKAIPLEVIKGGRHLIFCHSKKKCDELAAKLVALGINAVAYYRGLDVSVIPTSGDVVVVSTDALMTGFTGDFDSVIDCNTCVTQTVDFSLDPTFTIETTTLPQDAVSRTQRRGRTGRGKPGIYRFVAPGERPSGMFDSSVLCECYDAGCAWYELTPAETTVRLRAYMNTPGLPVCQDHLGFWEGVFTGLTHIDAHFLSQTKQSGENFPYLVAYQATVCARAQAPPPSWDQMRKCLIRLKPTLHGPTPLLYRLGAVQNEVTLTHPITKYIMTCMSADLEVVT
Source text: as §1

[1] = hepatitis C replicon, read-out: EC50

Row | SMILES | EC50 (hepatitis C replicon; [1]) [nM] | IC50 (NS3/NS4 complexes) [nM] | EC50 (hepatitis C replicon) [nM]
1 | CC(C)c1ccc2c(c1)nc(O[C@@H]1C[C@H]3C(=O)N[C@]4(C(=O)NS(=O)(=O)C5(C)CC5)C[C@H]4/C=C\CCCCC[C@H](Nc4ccccc4)C(=O)N3C1)n2C(C)C [Compound 202] | > 100 | < 10 | –
2 | CN(C)S(=O)(=O)NC(=O)[C@@]12C[C@H]1/C=C\CCCCC[C@H](NC(=O)OC(C)(C)C)C(=O)N1C[C@H](Oc3nc4ccccc4nc3C(C)(C)C)C[C@H]1C(=O)N2 [Compound 304] | 10 to 100 | < 10 | –
3 | CC(C)n1c(O[C@@H]2C[C@H]3C(=O)N[C@]4(C(=O)NS(=O)(=O)C5(C)CC5)C[C@H]4/C=C\CCCCC[C@H](NC(=O)OC(C)(C)C)C(=O)N3C2)nc2c(-c3nc(Cc4ccccc4Cl)cs3)cccc21 [Compound 1727] | < 10 | < 10 | –
4 | CC(C)n1c(O[C@@H]2C[C@H]3C(=O)N[C@]4(C(=O)NS(=O)(=O)N(C)C)C[C@H]4/C=C\CCCCC[C@H](NC(=O)OC(C)(C)C)C(=O)N3C2)nc2c(-c3nc(Cc4cccc(Cl)c4)cs3)cccc21 [Compound 1761] | 10 to 100 | < 10 | –
5 | CC(C)n1c(O[C@@H]2C[C@H]3C(=O)N[C@]4(C(=O)NS(=O)(=O)N(C)C)C[C@H]4/C=C\CCCCC[C@H](NC(=O)OC(C)(C)C)C(=O)N3C2)nc2c(-c3nc(C4CCCC4)cs3)cccc21 [Compound 293] | 10 to 100 | < 10 | –
6 | CC(C)n1c(O[C@@H]2C[C@H]3C(=O)N[C@]4(C(=O)NS(=O)(=O)C5(C)CC5)C[C@H]4/C=C\CCCCC[C@H](Nc4ccccc4)C(=O)N3C2)nc2c(-c3cccc(C#N)c3)cccc21 [Compound 241] | 10 to 100 | < 10 | –
7 | COc1ccc2c(O[C@@H]3C[C@H]4C(=O)N[C@]5(C(=O)NS(=O)(=O)C6(C)CC6)C[C@H]5/C=C\CCCCC[C@H](Nc5ccc(N)cc5)C(=O)N4C3)cc(-c3nc(C(C)C)cs3)nc2c1C [Compound 101] | – | < 10 | 10 to 100
8 | CNC(=O)Nc1cccc2c1nc(O[C@@H]1C[C@H]3C(=O)N[C@]4(C(=O)NS(=O)(=O)N(C)C)C[C@H]4/C=C\CCCCC[C@H](NC(=O)OC(C)(C)C)C(=O)N3C1)n2C(C)C [Compound 1426] | 10 to 100 | < 10 | –
9 | COc1ccc(-c2csc(-c3cccc4c3nc(O[C@@H]3C[C@H]5C(=O)N[C@]6(C(=O)NS(=O)(=O)N(C)C)C[C@H]6/C=C\CCCCC[C@H](NC(=O)OC(C)(C)C)C(=O)N5C3)n4C(C)C)n2)cc1 [Compound 1752] | 10 to 100 | < 10 | –
10 | CC(C)NC(=O)Nc1cccc2c1nc(O[C@@H]1C[C@H]3C(=O)N[C@]4(C(=O)NS(=O)(=O)C5(C)CC5)C[C@H]4/C=C\CCCCC[C@H](Nc4ccccc4)C(=O)N3C1)n2C(C)C [Compound 1407] | 10 to 100 | < 10 | –
11 | Cc1ccc(-c2csc(-c3cccc4c3nc(O[C@@H]3C[C@H]5C(=O)N[C@]6(C(=O)NS(=O)(=O)N(C)C)C[C@H]6/C=C\CCCCC[C@H](NC(=O)OC(C)(C)C)C(=O)N5C3)n4C(C)C)n2)cc1 [Compound 1746] | 10 to 100 | < 10 | –
12 | CC(C)n1c(O[C@@H]2C[C@H]3C(=O)N[C@]4(C(=O)NS(=O)(=O)N(C)C)C[C@H]4/C=C\CCCCC[C@H](NC(=O)OC(C)(C)C)C(=O)N3C2)nc2c(-c3nccs3)cccc21 [Compound 226] | < 10 | < 10 | –
13 | CC(C)n1c(O[C@@H]2C[C@H]3C(=O)N[C@]4(C(=O)NS(=O)(=O)N(C)C)C[C@H]4/C=C\CCCCC[C@H](NC(=O)OC(C)(C)C)C(=O)N3C2)nc2c(NC(=O)NCc3ccccc3)cccc21 [Compound 1423] | < 10 | < 10 | –
14 | CC(C)n1c(O[C@@H]2C[C@H]3C(=O)N[C@]4(C(=O)NS(=O)(=O)C5(C)CC5)C[C@H]4/C=C\CCCCC[C@H](Nc4cc(F)cc(C(F)(F)F)c4)C(=O)N3C2)nc2cncnc21 [Compound 503] | 10 to 100 | < 10 | –
15 | CC(C)n1c(O[C@@H]2C[C@H]3C(=O)N[C@]4(C(=O)NS(=O)(=O)C5(C)CC5)C[C@H]4/C=C\CCCCC[C@H](Nc4cccc(F)c4)C(=O)N3C2)nc2c(-c3nc(C4CCCC4)cs3)cccc21 [Compound 1729] | 10 to 100 | < 10 | –
